Columns and labels:
[1] = refractive index (Na D-line) (dimensionless); conditions: 293.1 K; 101.33 kPa; Liquid; Standard Abbe refractometry
[2] = Liquid

CC(C)COC(=O)C1CCCCC1C(=O)OCC(C)C (stereo unspecified) [diisobutyl hexahydrophthalate]
Conditions | refractive index
[1] | 1.453

[2]
Conditions | vapor or sublimation pressure [kPa]
434.4 K | 0.732
448.2 K | 1.539
463.3 K | 2.912
478.7 K | 4.813
486.4 K | 6.342
491.5 K | 7.672
500.3 K | 10.2
506.6 K | 12.5
509.6 K | 13.99
515 K | 16.31
519.5 K | 18.67
524.1 K | 21.3
527.8 K | 23.69
534.8 K | 28.61
538.2 K | 30.94

From the NIST ThermoML archive (doi:10.1016/j.fluid.2005.03.019)
